The values that follow come from patent US11737985B2 (priority 2013, dated 2023).

Read-outs that look alike come from different tables or passages of the source.

One series concerns the target T1, hNKCC1a (Homo sapiens, UniProt P55011).
T1 sequence (P55011 1-1212): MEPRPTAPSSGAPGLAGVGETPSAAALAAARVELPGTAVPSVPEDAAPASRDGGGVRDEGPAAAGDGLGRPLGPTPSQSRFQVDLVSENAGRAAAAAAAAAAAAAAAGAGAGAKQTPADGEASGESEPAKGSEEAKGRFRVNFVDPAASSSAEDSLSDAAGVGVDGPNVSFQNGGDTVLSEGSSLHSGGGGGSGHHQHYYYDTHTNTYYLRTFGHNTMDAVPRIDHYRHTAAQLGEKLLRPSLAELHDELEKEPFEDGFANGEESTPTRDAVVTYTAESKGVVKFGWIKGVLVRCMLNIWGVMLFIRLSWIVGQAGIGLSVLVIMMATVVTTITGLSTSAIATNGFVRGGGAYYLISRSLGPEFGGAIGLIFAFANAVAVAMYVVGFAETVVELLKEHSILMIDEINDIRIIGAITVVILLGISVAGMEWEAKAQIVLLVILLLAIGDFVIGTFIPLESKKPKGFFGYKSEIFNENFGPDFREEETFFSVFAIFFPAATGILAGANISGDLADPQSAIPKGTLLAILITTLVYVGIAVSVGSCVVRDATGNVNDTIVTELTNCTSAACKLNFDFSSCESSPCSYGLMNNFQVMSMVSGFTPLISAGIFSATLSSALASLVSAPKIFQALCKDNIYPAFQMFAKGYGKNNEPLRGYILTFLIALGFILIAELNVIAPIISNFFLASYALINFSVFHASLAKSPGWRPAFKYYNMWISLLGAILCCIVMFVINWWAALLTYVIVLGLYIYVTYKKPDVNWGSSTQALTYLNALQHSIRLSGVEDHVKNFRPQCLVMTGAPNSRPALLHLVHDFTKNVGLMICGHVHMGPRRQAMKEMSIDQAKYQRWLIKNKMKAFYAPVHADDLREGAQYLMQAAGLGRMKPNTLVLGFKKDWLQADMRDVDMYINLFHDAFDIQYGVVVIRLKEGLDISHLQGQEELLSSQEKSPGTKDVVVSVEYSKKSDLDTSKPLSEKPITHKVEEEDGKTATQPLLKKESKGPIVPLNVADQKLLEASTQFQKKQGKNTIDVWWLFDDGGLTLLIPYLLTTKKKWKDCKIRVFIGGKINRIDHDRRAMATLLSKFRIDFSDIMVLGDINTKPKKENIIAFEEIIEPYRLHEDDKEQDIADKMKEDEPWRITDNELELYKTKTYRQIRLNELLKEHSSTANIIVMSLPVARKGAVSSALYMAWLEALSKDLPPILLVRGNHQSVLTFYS
As to conditions: cited from earlier work.

The target of a further series is T2, NKCC2 (Homo sapiens, UniProt Q13621).
T2 sequence (Q13621 1-1099): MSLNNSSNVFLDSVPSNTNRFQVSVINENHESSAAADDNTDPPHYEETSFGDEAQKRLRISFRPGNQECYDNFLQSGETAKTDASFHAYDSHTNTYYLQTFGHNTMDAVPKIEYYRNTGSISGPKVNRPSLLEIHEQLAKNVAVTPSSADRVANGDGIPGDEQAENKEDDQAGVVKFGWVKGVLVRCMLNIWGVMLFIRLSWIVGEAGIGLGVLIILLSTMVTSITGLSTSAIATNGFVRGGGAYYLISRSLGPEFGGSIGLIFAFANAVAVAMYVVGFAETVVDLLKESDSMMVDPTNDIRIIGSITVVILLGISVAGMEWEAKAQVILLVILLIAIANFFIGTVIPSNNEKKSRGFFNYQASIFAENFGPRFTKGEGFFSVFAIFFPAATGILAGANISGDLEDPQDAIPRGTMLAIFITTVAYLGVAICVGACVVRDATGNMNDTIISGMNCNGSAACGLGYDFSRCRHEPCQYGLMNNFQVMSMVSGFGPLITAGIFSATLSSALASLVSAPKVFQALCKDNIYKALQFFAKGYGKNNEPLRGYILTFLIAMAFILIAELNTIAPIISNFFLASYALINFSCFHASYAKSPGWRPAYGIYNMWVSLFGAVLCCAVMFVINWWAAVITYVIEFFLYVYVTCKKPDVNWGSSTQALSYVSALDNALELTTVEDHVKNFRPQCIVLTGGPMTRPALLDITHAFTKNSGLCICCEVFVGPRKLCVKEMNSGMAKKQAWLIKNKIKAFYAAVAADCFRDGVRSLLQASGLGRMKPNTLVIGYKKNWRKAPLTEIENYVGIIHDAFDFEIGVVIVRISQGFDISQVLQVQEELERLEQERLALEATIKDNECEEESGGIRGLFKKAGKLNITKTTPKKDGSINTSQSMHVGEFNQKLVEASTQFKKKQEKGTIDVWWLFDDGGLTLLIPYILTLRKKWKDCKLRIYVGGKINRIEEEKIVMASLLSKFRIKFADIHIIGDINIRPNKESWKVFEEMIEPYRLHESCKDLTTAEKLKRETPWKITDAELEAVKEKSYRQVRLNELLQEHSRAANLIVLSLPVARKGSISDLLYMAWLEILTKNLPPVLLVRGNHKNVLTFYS
As to conditions: cited from earlier work.

The next series concerns the target T3, hNKCC1b (Homo sapiens, UniProt P55011).
T3 sequence (P55011 1-1196 isoform P55011-3): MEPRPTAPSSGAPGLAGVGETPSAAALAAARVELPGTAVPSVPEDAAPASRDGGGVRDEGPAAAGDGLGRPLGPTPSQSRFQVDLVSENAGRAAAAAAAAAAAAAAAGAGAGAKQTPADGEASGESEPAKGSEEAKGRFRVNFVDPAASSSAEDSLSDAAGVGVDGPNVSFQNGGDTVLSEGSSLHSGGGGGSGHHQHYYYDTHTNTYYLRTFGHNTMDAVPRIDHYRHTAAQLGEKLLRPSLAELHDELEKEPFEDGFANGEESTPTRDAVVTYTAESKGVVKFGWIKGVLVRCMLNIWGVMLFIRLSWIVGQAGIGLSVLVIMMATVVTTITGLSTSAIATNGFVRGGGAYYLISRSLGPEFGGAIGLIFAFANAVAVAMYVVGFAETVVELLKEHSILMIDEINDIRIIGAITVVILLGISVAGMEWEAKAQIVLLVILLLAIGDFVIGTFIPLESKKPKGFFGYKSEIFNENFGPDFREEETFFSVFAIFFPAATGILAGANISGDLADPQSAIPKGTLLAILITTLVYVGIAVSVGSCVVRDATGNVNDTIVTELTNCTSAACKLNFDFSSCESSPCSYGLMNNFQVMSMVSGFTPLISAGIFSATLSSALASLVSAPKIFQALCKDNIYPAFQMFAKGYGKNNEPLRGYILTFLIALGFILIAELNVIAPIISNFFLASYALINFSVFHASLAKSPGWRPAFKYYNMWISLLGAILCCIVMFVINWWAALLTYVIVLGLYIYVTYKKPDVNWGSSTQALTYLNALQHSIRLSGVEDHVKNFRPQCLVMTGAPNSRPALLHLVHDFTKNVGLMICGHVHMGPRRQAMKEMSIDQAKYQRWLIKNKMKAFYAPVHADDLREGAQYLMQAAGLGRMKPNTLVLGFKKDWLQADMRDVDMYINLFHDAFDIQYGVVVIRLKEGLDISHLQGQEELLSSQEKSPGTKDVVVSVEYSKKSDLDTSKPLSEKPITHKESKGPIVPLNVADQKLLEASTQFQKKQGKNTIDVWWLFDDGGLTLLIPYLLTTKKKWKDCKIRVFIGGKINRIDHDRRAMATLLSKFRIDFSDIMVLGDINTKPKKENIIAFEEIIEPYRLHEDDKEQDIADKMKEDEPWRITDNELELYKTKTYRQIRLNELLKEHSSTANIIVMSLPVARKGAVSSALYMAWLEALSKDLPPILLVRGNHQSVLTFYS
As to conditions: cited from earlier work.

Series [1] is described as follows: Cross-over trial dapagliflozin / bumetanide: weekly urinary excretion (Table 9). The format is in vivo, healthy volunteers. As to conditions: for Ca^++ / Glucose / K^+ / Mg^++ / Na^+ / Urate: urine, Day 1-7.
For series [2] the following is noted: in vivo; cited from earlier work.
The conditions of series [3]: in vivo; cited from earlier work. This is another data set of the same source.
The conditions of series [4]: during the remainder of the day after the dose, high salt intake; cited from earlier work.
The conditions of series [5]: in vivo; cited from earlier work. The source holds these as a separate data set.
The conditions of series [6]: 1 mg; cited from earlier work.
The conditions of series [7]: cited from earlier work.

In general, IC50 refers to the concentration at which inhibition is half-maximal. With `NS(=O)(=O)c1cc(-c2nnn[nH]2)c(NCc2cccs2)cc1Cl` [Azosemide], the IC50 at hNKCC1a was 250 nM; at NKCC2, 3100 nM; on hNKCC1b, 210 nM.
With `CCCCNc1cc(C(=O)O)cc(S(N)(=O)=O)c1Oc1ccccc1` [Bumetanide], the IC50 on hNKCC1a was 950 nM. Also, the “greater natriuresis with bumetanide” value in [1] (given after one week of dapaglifozin therapy) came out at 36%. Besides, in [1], the “Ca^++” value is recorded as 667 ± 54 mg-wk^−1, the Glucose turned out to be 0.3 ± 0.06 g-wk^−1, the “K^+” value stood at 454 ± 32 mmol-wk^−1 and the “Mg^++” value amounted to 613 ± 48 mg-wk^−1. In addition, in [1], the “Na^+” value came out at 669 ± 46 mmol-wk^−1 and the Urate amounted to 2249 ± 160 mg-wk^−1. Further, the IC50 at NKCC2 is 250 nM. Also, on hNKCC1b, the IC50 was 840 nM.
By Tmax is commonly meant the time from dosing to the highest level. For the compound `Cc1ccc([C@@H]2O[C@H](CO)[C@@H](O)[C@H](O)[C@H]2O)cc1Cc1ccc(-c2ccc(F)cc2)s1` [Canagliflozin], in [2], the Bioavailability is on record as 65%, the T1/2 is 10 h and the Tmax was 1 to 2 h.
On to `CCOc1ccc(Cc2cc([C@@H]3O[C@H](CO)[C@@H](O)[C@H](O)[C@H]3O)ccc2Cl)cc1` [Dapagliflozin], for which, in series [2], the T1/2 is 13 h and the Tmax was 1 to 1.5 h. For the same compound, the “greater natriuresis with dapagliflozin” value in series [1] (given after one week of bumetanide therapy) amounted to 190%. Also, in [1], the “Ca^++” value turned out to be 597 ± 76 mg-wk^−1, the Glucose is 239 ± 20 g-wk^−1, the “K^+” value was 415 ± 24 mmol-wk^−1 and the “Mg^++” value is given as 548 ± 37 mg-wk^−1. Besides, in series [1], the “Na^+” value stood at 625 ± 15 mmol-wk^−1 and the Urate was 3382 ± 187 mg-wk^−1.
As to `OC[C@H]1O[C@@H](c2ccc(Cl)c(Cc3ccc(O[C@H]4CCOC4)cc3)c2)[C@H](O)[C@@H](O)[C@@H]1O` [Empagliflozin], in series [2], the Bioavailability is 95%, the T1/2 is given as 13 h and the Tmax is recorded as 1.5 h.
For orientation: half-life means the time needed for the level to fall by half in the phase considered. As for `COC(=O)[C@@H]1CC2=CC(=O)CC[C@]2(C)[C@@]23O[C@@H]2C[C@@]2(C)[C@@H](CC[C@@]24CCC(=O)O4)[C@H]13` [Eplerenone], the half-life in series [3] was 4 to 6 h.
As to `CCOc1ccc(Cc2cc([C@]34OC[C@](CO)(O3)[C@@H](O)[C@H](O)[C@H]4O)ccc2Cl)cc1` [Ertugliflozin], in series [2], the Bioavailability is listed as 87%, the T1/2 is listed as 12.5 h and the Tmax is 2 to 3 h.
Turning to `C=C(CC)C(=O)c1ccc(OCC(=O)O)c(Cl)c1Cl` [Ethacrynic acid], the IC50 at NKCC2 is 5100 nM.
On to `NS(=O)(=O)c1cc(C(=O)O)c(NCc2ccco2)cc1Cl` [Furosemide], for which the “reduction of GFR” value in series [4] is on record as “circa 23%”. For the same compound, at NKCC2, the concentration for half-maximal inhibition (IC50) is 5100 nM.
In the case of `OC[C@H]1O[C@@H](c2ccc(F)c(Cc3cc4ccccc4s3)c2)[C@H](O)[C@@H](O)[C@@H]1O` [Ipragliflozin], in [2], the Bioavailability is 92% and the T1/2 is on record as 15 h.
Consider `O=C1CC[C@@]2(O)[C@H]3Cc4ccc(O)c5c4[C@@]2(CCN3CC2CC2)[C@H]1O5` [Naltrexone, 17-(cyclopropylmethyl)-4,5-epoxy-3,14-dihydroxymorphinan-6-one], for which, in [5], the fraction metabolized is over 98%.
Take `COc1cc2nc(N3CCN(C(=O)c4ccco4)CC3)nc(N)c2cc1OC` [Prazosin]: in series [6], the Oral bioavailability is recorded as 56.9%.
Take `CCOc1ccc(Cc2cc([C@@H]3O[C@H](SC)[C@@H](O)[C@H](O)[C@H]3O)ccc2Cl)cc1` [Sotagliflozin]: in series [2], the Bioavailability was 70%, the T1/2 was 2.5 h and the Tmax is 1.9 h.
For the compound `CCc1ccc(Cc2ccc3c(c2)[C@]2(OC3)O[C@H](CO)[C@@H](O)[C@H](O)[C@H]2O)cc1` [Tofogliflozin], in [2], the Bioavailability is reported as 98%, the T1/2 was 5.5 h and the time of peak concentration (Tmax) is given as 1.1 h.
Take `Cc1cccc(Nc2ccncc2S(=O)(=O)NC(=O)NC(C)C)c1` [Torsemide]: the figures for the IC50 at hNKCC1a, at NKCC2 and on hNKCC1b were 6200 nM, 300 nM and 8200 nM, respectively. In series [7] (in vivo), the Bioavailability was 80-100%. The duration of action in series [7] (in vivo) is 3 to 5 h. For the same compound, the plasma half-life in [7] (unchanged in chronic renal failure) is 3 to 5 h.
For `C[C@]12CCC(=O)C=C1C=C[C@@H]1[C@@H]2CC[C@@]2(C)[C@H]1CC[C@@]21CCC(=O)O1` [canrenone], the half-life result in [3] is “more than 15 hours”.
